For series [1] the following is noted: 101.33 kPa, Liquid, Vibrating tube method.
Series [2] is described as follows: refractive index (Na D-line) (dimensionless). Particulars: 101.33 kPa, Liquid, Standard Abbe refractometry.

± gives the expanded uncertainty stated by the source.

On to `CCCCn1cc[n+](C)c1.COS(=O)(=O)[O-]` [1-butyl-3-methylimidazolium methyl sulfate], for which the mass density amounted to 1214.7 ± 2 kg/m3 in series [1] (293.15 K), 1211.3 ± 2 kg/m3 in series [1] (298.15 K), 1201.5 ± 2 kg/m3 in series [1] (313.15 K) and 1188.4 ± 2 kg/m3 in series [1] (333.15 K). Further, the refractive index in series [2] (293.15 K) turned out to be 1.47876 ± 0.00072; in series [2] (298.15 K), 1.47775 ± 0.00072; in series [2] (313.15 K), 1.47473 ± 0.00073; in series [2] (333.15 K), 1.46971 ± 0.00074.

In the case of `CCCCCCCCCCCCCC[P+](CCCCCC)(CCCCCC)CCCCCC.O=S(=O)([N-]S(=O)(=O)C(F)(F)F)C(F)(F)F`, the mass density in series [1] (293.15 K) is 1069.1 ± 2 kg/m3; in series [1] (298.15 K), 1065.4 ± 2 kg/m3; in series [1] (313.15 K), 1054.5 ± 2 kg/m3; in series [1] (333.15 K) it was 1039.9 ± 2 kg/m3. For the same molecule, the refractive index in series [2] (293.15 K) stood at 1.45164 ± 0.0008; in series [2] (298.15 K), 1.44963 ± 0.00075; in series [2] (313.15 K) it was 1.44561 ± 0.00076; in series [2] (333.15 K), 1.43858 ± 0.00078.

On to `CCCC[n+]1ccn(C)c1.O=S(=O)([N-]S(=O)(=O)C(F)(F)F)C(F)(F)F`, for which the mass density worked out at 1440.8 ± 2.1 kg/m3 in series [1] (293.15 K), 1436 ± 2.1 kg/m3 in series [1] (298.15 K), 1421.6 ± 2.1 kg/m3 in series [1] (313.15 K) and 1402.6 ± 2.1 kg/m3 in series [1] (333.15 K). For the same molecule, the refractive index in series [2] (293.15 K) is on record as 1.42853 ± 0.0008; in series [2] (298.15 K) it was 1.42653 ± 0.00075; in series [2] (313.15 K), 1.42251 ± 0.00075; in series [2] (333.15 K) it was 1.41648 ± 0.00076.

For `CC(=O)[O-].CCCCn1cc[n+](C)c1` [1-butyl-3-methylimidazolium acetate], the mass density in series [1] (293.15 K) came out at 1056.2 ± 2.2 kg/m3; in series [1] (298.15 K) it was 1053.2 ± 2.2 kg/m3; in series [1] (313.15 K), 1044 ± 2.2 kg/m3; in series [1] (333.15 K) it was 1032.2 ± 2.2 kg/m3. In addition, the refractive index in series [2] (293.15 K) is recorded as 1.49481 ± 0.0008; in series [2] (298.15 K), 1.49381 ± 0.00083; in series [2] (313.15 K), 1.48879 ± 0.00083; in series [2] (333.15 K) it was 1.48377 ± 0.00081.

Take `CCCCCCCCCCCCCCn1cc[n+](C)c1.O=S(=O)([N-]S(=O)(=O)C(F)(F)F)C(F)(F)F`: the mass density in series [1] (313.15 K) is 1200.6 ± 2 kg/m3; in series [1] (333.15 K), 1184 ± 2 kg/m3. Also, the results for the refractive index in series [2] (313.15 K) and in series [2] (333.15 K) were 1.43456 ± 0.00076 and 1.42854 ± 0.00076, respectively.

On to `CCCCCCCCCCn1cc[n+](C)c1.O=S(=O)([N-]S(=O)(=O)C(F)(F)F)C(F)(F)F`, for which the mass density in series [1] (293.15 K) came out at 1282.8 ± 2 kg/m3; in series [1] (298.15 K), 1278.3 ± 2 kg/m3; in series [1] (313.15 K), 1265.3 ± 2 kg/m3; in series [1] (333.15 K), 1248.2 ± 2 kg/m3. Besides, the refractive index is reported as 1.43658 ± 0.00072 in series [2] (293.15 K), 1.43557 ± 0.00076 in series [2] (298.15 K), 1.43055 ± 0.00076 in series [2] (313.15 K) and 1.42452 ± 0.00076 in series [2] (333.15 K).

As for `CCCCn1cc[n+](C)c1.F[P-](F)(F)(F)(F)F` [1-butyl-3-methylimidazolium hexafluorophosphate], the mass density in series [1] (293.15 K) was determined as 1367.9 ± 2.1 kg/m3; in series [1] (298.15 K) it was 1363.7 ± 2.1 kg/m3; in series [1] (313.15 K), 1351.3 ± 2.1 kg/m3; in series [1] (333.15 K) it was 1334.9 ± 2.1 kg/m3. Further, the refractive index in series [2] (293.15 K) turned out to be 1.41045 ± 0.0008; in series [2] (298.15 K), 1.40844 ± 0.00073; in series [2] (313.15 K), 1.40543 ± 0.00073; in series [2] (333.15 K), 1.4004 ± 0.00074.

For the molecule `CC(=O)[O-].CCCCCCCCCCCCCC[P+](CCCCCC)(CCCCCC)CCCCCC` [trihexyl(tetradecyl)phosphonium acetate], the mass density in series [1] (293.15 K) is given as 894.5 ± 2.1 kg/m3; in series [1] (298.15 K), 891.3 ± 2.1 kg/m3; in series [1] (313.15 K), 882.3 ± 2.1 kg/m3; in series [1] (333.15 K), 870.4 ± 2.1 kg/m3. In addition, the refractive index in series [2] (293.15 K) amounted to 1.48377 ± 0.00087; in series [2] (298.15 K), 1.48176 ± 0.00085; in series [2] (313.15 K), 1.47674 ± 0.00084; in series [2] (333.15 K), 1.47072 ± 0.00083.

As to `CCCCn1cc[n+](C)c1.O=S(=O)([O-])C(F)(F)F` [1-butyl-3-methylimidazolium trifluoromethanesulfonate], the mass density in series [1] (293.15 K) is reported as 1303.5 ± 2 kg/m3; in series [1] (298.15 K), 1299.5 ± 2 kg/m3; in series [1] (313.15 K) it was 1287.7 ± 2 kg/m3; in series [1] (333.15 K) it was 1272.1 ± 2 kg/m3. The refractive index in series [2] (293.15 K) is listed as 1.43758 ± 0.00072; in series [2] (298.15 K), 1.43657 ± 0.00076; in series [2] (313.15 K), 1.43155 ± 0.00076; in series [2] (333.15 K) it was 1.42552 ± 0.00076.

As to `CCCCCCn1cc[n+](C)c1.F[P-](F)(F)(F)(F)F` [1-hexyl-3-methylimidazolium hexafluorophosphate], the mass density is 1296.4 ± 2 kg/m3 in series [1] (293.15 K), 1292.4 ± 2 kg/m3 in series [1] (298.15 K), 1280.4 ± 2 kg/m3 in series [1] (313.15 K) and 1264.9 ± 2 kg/m3 in series [1] (333.15 K). Besides, the refractive index in series [2] (293.15 K) is 1.41849 ± 0.0008; in series [2] (298.15 K) it was 1.41648 ± 0.00073; in series [2] (313.15 K), 1.41346 ± 0.00073; in series [2] (333.15 K), 1.40844 ± 0.00074.

On to `CCCCCC[n+]1ccn(C)c1.O=S(=O)([N-]S(=O)(=O)C(F)(F)F)C(F)(F)F`, for which the mass density in series [1] (293.15 K) turned out to be 1375.5 ± 2.1 kg/m3; in series [1] (298.15 K), 1371 ± 2.1 kg/m3; in series [1] (313.15 K), 1357.2 ± 2.1 kg/m3; in series [1] (333.15 K), 1339.1 ± 2.1 kg/m3. Also, the refractive index is reported as 1.43155 ± 0.0008 in series [2] (293.15 K), 1.42954 ± 0.00075 in series [2] (298.15 K), 1.42552 ± 0.00074 in series [2] (313.15 K) and 1.4205 ± 0.00074 in series [2] (333.15 K).

With `CCCCCCCC[n+]1ccn(C)c1.F[P-](F)(F)(F)(F)F` [1-octyl-3-methylimidazolium hexafluorophosphate], the mass density in series [1] (293.15 K) is recorded as 1237.8 ± 2 kg/m3; in series [1] (298.15 K) it was 1234 ± 2 kg/m3; in series [1] (313.15 K) it was 1222.4 ± 2 kg/m3; in series [1] (333.15 K) it was 1207.5 ± 2 kg/m3. In addition, the refractive index in series [2] (293.15 K) is listed as 1.42452 ± 0.00072; in series [2] (298.15 K), 1.42351 ± 0.00074; in series [2] (313.15 K), 1.41949 ± 0.00075; in series [2] (333.15 K) it was 1.41347 ± 0.00076.

On to `CCn1cc[n+](C)c1.O=S(=O)([N-]S(=O)(=O)C(F)(F)F)C(F)(F)F`, for which the mass density in series [1] (293.15 K) turned out to be 1519.7 ± 2.1 kg/m3; in series [1] (298.15 K) it was 1514.7 ± 2.1 kg/m3; in series [1] (313.15 K), 1499.6 ± 2.1 kg/m3; in series [1] (333.15 K) it was 1479.7 ± 2.1 kg/m3. For the same molecule, the refractive index in series [2] (293.15 K) turned out to be 1.42351 ± 0.00072; in series [2] (298.15 K), 1.42251 ± 0.00074; in series [2] (313.15 K), 1.41849 ± 0.00074; in series [2] (333.15 K), 1.41346 ± 0.00074.

On to `CCCCCCCCCCCCn1cc[n+](C)c1.O=S(=O)([N-]S(=O)(=O)C(F)(F)F)C(F)(F)F`, for which the mass density in series [1] (293.15 K) worked out at 1249 ± 2 kg/m3; in series [1] (298.15 K), 1244.7 ± 2 kg/m3; in series [1] (313.15 K), 1231.8 ± 2 kg/m3; in series [1] (333.15 K), 1215.1 ± 2 kg/m3. Besides, the refractive index in series [2] (293.15 K) was found to be 1.43958 ± 0.0008; in series [2] (298.15 K), 1.43758 ± 0.00075; in series [2] (313.15 K), 1.43356 ± 0.00075; in series [2] (333.15 K), 1.42754 ± 0.00076.

As for `CCCCCCCCCCCCCC[P+](CCCCCC)(CCCCCC)CCCCCC.O=S(=O)([O-])C(F)(F)F`, the mass density came out at 985.6 ± 2 kg/m3 in series [1] (293.15 K), 982.3 ± 2 kg/m3 in series [1] (298.15 K), 972.5 ± 2 kg/m3 in series [1] (313.15 K) and 959.6 ± 2 kg/m3 in series [1] (333.15 K). The refractive index in series [2] (293.15 K) was found to be 1.45967 ± 0.0008; in series [2] (298.15 K), 1.45766 ± 0.00075; in series [2] (313.15 K), 1.45365 ± 0.00076; in series [2] (333.15 K) it was 1.44662 ± 0.00078.

`CCCCn1cc[n+](C)c1.F[B-](F)(F)F` [1-butyl-3-methylimidazolium tetrafluoroborate]: the mass density in series [1] (293.15 K) was 1202.9 ± 2 kg/m3; in series [1] (298.15 K) it was 1199.4 ± 2 kg/m3; in series [1] (313.15 K) it was 1188.7 ± 2 kg/m3; in series [1] (333.15 K), 1174.6 ± 2 kg/m3. Besides, the refractive index stood at 1.42251 ± 0.00072 in series [2] (293.15 K), 1.4215 ± 0.00074 in series [2] (298.15 K), 1.41748 ± 0.00074 in series [2] (313.15 K) and 1.41246 ± 0.00074 in series [2] (333.15 K).

Take `CCCCCCCCn1cc[n+](C)c1.O=S(=O)([N-]S(=O)(=O)C(F)(F)F)C(F)(F)F`: the mass density in series [1] (293.15 K) turned out to be 1323.4 ± 2.1 kg/m3; in series [1] (298.15 K), 1318.9 ± 2.1 kg/m3; in series [1] (313.15 K), 1305.5 ± 2.1 kg/m3; in series [1] (333.15 K), 1288 ± 2 kg/m3. Further, the refractive index turned out to be 1.43457 ± 0.0008 in series [2] (293.15 K), 1.43256 ± 0.00075 in series [2] (298.15 K), 1.42854 ± 0.00075 in series [2] (313.15 K) and 1.42251 ± 0.00076 in series [2] (333.15 K).

Broadly, the mass density is the mass of a sample divided by its volume. Usually refractive index stands for the speed of light in vacuum divided by its phase velocity in the sample.
